Patent US20220062240A1, “METHODS OF TREATING CANCER USING A CLK INHIBITOR” (BioSplice Therapeutics, Inc., priority 2018, published 2022)
Read-outs that look alike come from different tables or passages of the source. Values belong to the molecule of their own block, whether it stands above or below them.

Experiments:
Type in all cases: cell-based
[1] = test system: BT-549; experiment: CellTiter-Glo Viability Assay, breast cancer; settings: Homo sapiens, 96 h; BT-549, breast cancer, four days; read-out: EC50
[2] = test system: CAMA1; experiment: CellTiter-Glo Viability Assay, breast cancer; settings: Homo sapiens, CAMA-1, 96 h; CAMA1, breast cancer, four days; read-out: EC50
[3] = test system: DU4475; experiment: CellTiter-Glo Viability Assay, breast cancer; settings: Homo sapiens, DU-4475, 96 h; DU4475, breast cancer, four days; read-out: EC50
[4] = test system: HCC1599; experiment: CellTiter-Glo Viability Assay, breast cancer; settings: Homo sapiens, 96 h; HCC1599, breast cancer, four days; read-out: EC50
[5] = test system: MCF7; experiment: CellTiter-Glo Viability Assay, breast cancer; settings: Homo sapiens, 96 h; MCF7, breast cancer, four days; read-out: EC50
[6] = test system: MDA-MB-231-Luc; experiment: CellTiter-Glo Viability Assay, breast cancer; settings: Homo sapiens, 96 h; MDA-MB-231-Luc, breast cancer, four days; read-out: EC50
[7] = test system: T47D; experiment: CellTiter-Glo Viability Assay, breast cancer; settings: Homo sapiens, 96 h, breast cancer, four days, read-out: EC50
[8] = test system: ZR-75-1; experiment: CellTiter-Glo Viability Assay, breast cancer; settings: Homo sapiens, 96 h; ZR-75-1, breast cancer, four days; read-out: EC50
[9] = test system: all 50 cell lines; experiment: CellTiter-Glo Viability Assay, average across all cell lines; settings: Homo sapiens; across all 50 cell lines; read-out: average EC50 for inhibition of cancer cell proliferation
In short: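 Proliferation of a multi-tissue human cancer line panel is assessed over four days at 37° C and 5% CO2, seeding 300-3,000 cells/well. Viability is quantified by CellTiter-Glo luminescence, and EC50 values are calculated.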

[10] = test system: colorectal cancer (6 cell lines); experiment: CellTiter-Glo Viability Assay, colorectal cancer; settings: Homo sapiens, inhibition of cancer cell proliferation
[11] = test system: haematopoietic & lymphoid tumors (13 cell lines); experiment: CellTiter-Glo Viability Assay, haematopoietic & lymphoid tumors; settings: Homo sapiens, inhibition of cancer cell proliferation
[12] = test system: liver cancer (3 cell lines); experiment: CellTiter-Glo Viability Assay, liver cancer; settings: Homo sapiens, inhibition of cancer cell proliferation
[13] = test system: lung cancer (4 cell lines); experiment: CellTiter-Glo Viability Assay, lung cancer; settings: Homo sapiens, inhibition of cancer cell proliferation
[14] = test system: ovarian cancer (4 cell lines); experiment: CellTiter-Glo Viability Assay, ovarian cancer; settings: Homo sapiens, inhibition of cancer cell proliferation
[15] = test system: pancreatic cancer (8 cell lines); experiment: CellTiter-Glo Viability Assay, pancreatic cancer; settings: Homo sapiens, inhibition of cancer cell proliferation
[16] = test system: prostate cancer (5 cell lines); experiment: CellTiter-Glo Viability Assay, prostate cancer; settings: Homo sapiens
[17] = HCT-116, HCT116 cell line, read-out: Colorectal cancer, EC50 (μM) HCT116
[18] = HT-29, HT29 cell line, read-out: Colorectal cancer, EC50 (μM) HT29
[19] = SW-620, SW620 cell line, read-out: Colorectal cancer, EC50 (μM) SW620
[20] = DLD-1 cell line, read-out: Colorectal cancer, EC50 (μM) DLD-1
[21] = SW48 cell line, read-out: Colorectal cancer, EC50 (μM) SW48
[22] = SW480 cell line, read-out: Colorectal cancer, EC50 (μM) SW480
[23] = DND41, DND-41 cell line, read-out: Haematopoietic & Lymphoid tumors, EC50 (μM) DND-41
[24] = MV4-11, MV-4-11 cell line, read-out: Haematopoietic & Lymphoid tumors, EC50 (μM) MV-4-11
[25] = Rec1, REC-1 cell line, read-out: Haematopoietic & Lymphoid tumors, EC50 (μM) REC-1
[26] = SU-DHL-4, SUDHL4 cell line, read-out: Haematopoietic & Lymphoid tumors, EC50 (μM) SUDHL4
[27] = HL-60 cell line, read-out: Haematopoietic & Lymphoid tumors, EC50 (μM) HL-60
[28] = JM1 cell line, read-out: Haematopoietic & Lymphoid tumors, EC50 (μM) JM1
[29] = JURKAT, Clone E6-1 cell line, read-out: Haematopoietic & Lymphoid tumors, EC50 (μM) JURKAT, Clone E6-1
[30] = JeKo-1 cell line, read-out: Haematopoietic & Lymphoid tumors, EC50 (μM) JeKo-1
[31] = KASUMI-1 cell line, read-out: Haematopoietic & Lymphoid tumors, EC50 (μM) KASUMI-1
[32] = Loucy cell line, read-out: Haematopoietic & Lymphoid tumors, EC50 (μM) Loucy
[33] = MOLT-4 cell line, read-out: Haematopoietic & Lymphoid tumors, EC50 (μM) MOLT-4
[34] = TF-1 cell line, read-out: Haematopoietic & Lymphoid tumors, EC50 (μM) TF-1
[35] = TOLEDO cell line, read-out: Haematopoietic & Lymphoid tumors, EC50 (μM) TOLEDO
[36] = SNU-398, SNU398 cell line, read-out: Liver cancer, EC50 SNU398
[37] = HEPG2 cell line, read-out: Liver cancer, EC50 HEPG2
[38] = PLC/PRF/5 cell line, read-out: Liver cancer, EC50 PLC/PRF/5
[39] = A-427, A427 cell line, read-out: Lung cancer, EC50 (μM) A427
[40] = HCC78, HCC-78 cell line, read-out: Lung cancer, EC50 (μM) HCC-78
[41] = NCI-H460 cell line, read-out: Lung cancer, EC50 (μM) NCI-H460
[42] = NCI-H522 cell line, read-out: Lung cancer, EC50 (μM) NCI-H522
[43] = PA-1, PA1 cell line, read-out: Ovarian cancer, EC50 (μM) PA1
[44] = TOV112D, TOV-112D cell line, read-out: Ovarian cancer, EC50 (μM) TOV-112D
[45] = OV-90 cell line, read-out: Ovarian cancer, EC50 (μM) OV-90
[46] = OVCAR-3 cell line, read-out: Ovarian cancer, EC50 (μM) OVCAR-3
[47] = BXPC-3, BxPC3 cell line, read-out: Pancreatic cancer, EC50 BxPC3
[48] = CAPAN-1, Capan1 cell line, read-out: Pancreatic cancer, EC50 Capan1
[49] = Capan-2, Capan2 cell line, read-out: Pancreatic cancer, EC50 Capan2
[50] = MIA PaCa-2 cell line, read-out: Pancreatic cancer, EC50 MIA PaCa-2
[51] = PANC 05.04 cell line, read-out: Pancreatic cancer, EC50 PANC 05.04
[52] = PANC-1 cell line, read-out: Pancreatic cancer, EC50 PANC-1
[53] = UPAFII cell line, read-out: Pancreatic cancer, EC50 UPAFII
[54] = DU-145, read-out: Prostate cancer EC50 Du-145
[55] = PC-3, PC3 cell line, inhibition of cancer cell proliferation, read-out: Prostate cancer EC50 PC3
[56] = 22Rv1 cell line, inhibition of cancer cell proliferation, read-out: Prostate cancer EC50 22Rv1
[57] = LNCap clone FGC cell line, inhibition of cancer cell proliferation, read-out: Prostate cancer EC50 LNCap clone FGC
[58] = VCaP (Sigma) cell line, inhibition of cancer cell proliferation, read-out: Prostate cancer EC50 VCaP (Sigma)

- EC50 [1]: 0.277 µM
- EC50 [2]: 0.244 µM
- EC50 [3]: 0.148 µM
- EC50 [4]: 0.154 µM
- EC50 [5]: 0.942 µM
- EC50 [6]: 0.462 µM
- EC50 [7]: 0.451 µM
- EC50 [8]: 0.44 µM
- EC50 [10, 17]: 0.168 µM
- EC50 [10, 18]: 0.252 µM
- EC50 [10, 19]: 0.143 µM
- EC50 [10, 20]: 0.193 µM
- EC50 [10, 21]: 0.122 µM
- EC50 [10, 22]: 0.339 µM
- EC50 [11, 23]: 0.288 µM
- EC50 [11, 24]: 0.081 µM
- EC50 [11, 25]: 0.103 µM
- EC50 [11, 26]: 0.292 µM
- EC50 [11, 27]: 0.221 µM
- EC50 [11, 28]: 0.137 µM
- EC50 [11, 29]: 0.169 µM
- EC50 [11, 30]: 0.125 µM
- EC50 [11, 31]: 0.163 µM
- EC50 [11, 32]: 0.206 µM
- EC50 [11, 33]: 0.233 µM
- EC50 [11, 34]: 0.316 µM
- EC50 [11, 35]: 0.117 µM
- EC50 [12, 36]: 0.123 µM
- EC50 [12, 37]: 0.485 µM
- EC50 [12, 38]: 0.613 µM
- EC50 [13, 39]: 0.236 µM
- EC50 [13, 40]: 0.308 µM
- EC50 [13, 41]: 0.257 µM
- EC50 [13, 42]: 0.19 µM
- EC50 [14, 43]: 0.175 µM
- EC50 [14, 44]: 0.147 µM
- EC50 [14, 45]: 0.628 µM
- EC50 [14, 46]: 0.073 µM
- EC50 [15, 47]: 0.199 µM
- EC50 [15, 48]: 0.269 µM
- EC50 [15, 49]: 0.579 µM
- EC50 [15, 50]: 0.159 µM
- EC50 [15, 51]: 0.279 µM
- EC50 [15, 52]: 0.514 µM
- EC50 [15, 53]: 0.169 µM
- EC50 [16, 54]: 0.36 µM
- EC50 [16, 55]: 0.287 µM
- EC50 [16, 56]: 0.218 µM
- EC50 [16, 57]: 0.293 µM
- EC50 [16, 58]: 0.77 µM
SMILES: Cc1ncc(C(=O)Nc2cc3nc(-c4cnc(C)n4C)ccc3cn2)s1 [Compound 82]
- EC50 [9]: 0.282 µM

- EC50 [1]: 5.51 µM
- EC50 [2]: 8.71 µM
- EC50 [3]: 6.04 µM
- EC50 [4]: 0.312 µM
- EC50 [5]: > 10 µM
- EC50 [6]: > 10 µM
- EC50 [7]: 0.867 µM
- EC50 [8]: > 10 µM
- EC50 [10, 17]: 6.22 µM
- EC50 [10, 18]: > 10 µM
- EC50 [10, 19]: 5.35 µM
- EC50 [10, 20]: 2.53 µM
- EC50 [10, 21]: 1.87 µM
- EC50 [10, 22]: > 10 µM
- EC50 [11, 23]: > 10 µM
- EC50 [11, 24]: 0.675 µM
- EC50 [11, 25]: 2.25 µM
- EC50 [11, 26]: 4.87 µM
- EC50 [11, 27]: 7.97 µM
- EC50 [11, 28]: 3.24 µM
- EC50 [11, 29]: 3.81 µM
- EC50 [11, 30]: 2.18 µM
- EC50 [11, 31]: 1.63 µM
- EC50 [11, 32]: 3.96 µM
- EC50 [11, 33]: 6.76 µM
- EC50 [11, 34]: 6.97 µM
- EC50 [11, 35]: 2.51 µM
- EC50 [12, 36]: 4.92 µM
- EC50 [12, 37]: > 10 µM
- EC50 [12, 38]: > 10 µM
- EC50 [13, 39]: 8.56 µM
- EC50 [13, 40]: > 10 µM
- EC50 [13, 41]: > 10 µM
- EC50 [13, 42]: 7.15 µM
- EC50 [14, 43]: 9.92 µM
- EC50 [14, 44]: 7.05 µM
- EC50 [14, 45]: > 10 µM
- EC50 [14, 46]: 8.42 µM
- EC50 [15, 47]: > 10 µM
- EC50 [15, 48]: > 10 µM
- EC50 [15, 49]: > 10 µM
- EC50 [15, 50]: 5.86 µM
- EC50 [15, 51]: > 10 µM
- EC50 [15, 52]: > 10 µM
- EC50 [15, 53]: > 10 µM
- EC50 [16, 54]: > 10 µM
- EC50 [16, 55]: > 10 µM
- EC50 [16, 56]: 0.867 µM
- EC50 [16, 57]: 9.15 µM
- EC50 [16, 58]: 5.58 µM
SMILES: O=C(Nc1ccc(OCCN2CCCC2)cc1)c1n[nH]cc1/C=C/c1cccnc1 [Compound 92]
- EC50 [9]: 6.83 µM
